Assay results as given in patent publication US20250136556A1, “NOVEL MODULATORS OF THE ARYL HYDROCARBON RECEPTOR AND METHODS OF USE THEREOF” (Allianthera (Suzhou) Biopharmaceutical Co., Ltd., priority 2021, published 2025).

Biological target: T1, Human Aryl Hydrocarbon Receptor (AHR) (Homo sapiens, UniProt P35869)
T1 construct: purchased INDIGO Bioscience IB06001-32; host or cells: AHR Reporter Cell (proprietary kit cells)
T1 sequence (P35869 11-848): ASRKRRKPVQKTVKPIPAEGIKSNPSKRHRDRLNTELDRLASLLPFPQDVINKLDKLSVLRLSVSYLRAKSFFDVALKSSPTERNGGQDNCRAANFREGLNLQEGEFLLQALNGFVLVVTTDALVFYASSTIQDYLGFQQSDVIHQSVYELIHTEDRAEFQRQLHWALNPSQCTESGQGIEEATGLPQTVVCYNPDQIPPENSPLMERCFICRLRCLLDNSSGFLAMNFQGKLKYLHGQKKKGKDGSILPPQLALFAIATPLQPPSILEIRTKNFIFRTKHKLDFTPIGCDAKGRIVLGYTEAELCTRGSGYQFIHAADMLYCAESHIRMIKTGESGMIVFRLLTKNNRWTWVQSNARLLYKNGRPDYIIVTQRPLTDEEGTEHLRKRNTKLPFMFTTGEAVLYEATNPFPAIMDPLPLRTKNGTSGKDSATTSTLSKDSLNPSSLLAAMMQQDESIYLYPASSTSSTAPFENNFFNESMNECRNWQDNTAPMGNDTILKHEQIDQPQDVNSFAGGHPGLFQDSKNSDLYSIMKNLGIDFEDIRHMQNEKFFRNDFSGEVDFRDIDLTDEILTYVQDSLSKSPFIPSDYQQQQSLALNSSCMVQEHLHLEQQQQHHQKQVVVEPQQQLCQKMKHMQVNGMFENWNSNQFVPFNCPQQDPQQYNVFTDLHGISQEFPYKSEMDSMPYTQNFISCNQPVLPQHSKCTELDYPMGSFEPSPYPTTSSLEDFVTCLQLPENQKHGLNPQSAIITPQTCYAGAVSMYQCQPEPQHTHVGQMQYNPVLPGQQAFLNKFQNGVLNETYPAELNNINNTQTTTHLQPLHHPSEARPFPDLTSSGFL
Assay: AHR agonist reporter assay in human cell line (INDIGO luciferase reporter);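 further: firefly luciferase luminescence read on a plate reader, values normalized against positive and negative controls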
Format: cell-based
Conditions: reporter cells, 24 hours incubation, second line of cell; read-out: AHR abEC50
Experimental: The AHR reporter assay was performed following the protocol of the Human Aryl Hydrocarbon Receptor (AHR) Reporter Assay System (INDIGO Bioscience, #IB06001-32). AHR Reporter Cell was thawed and pre-incubated in Cell Recovery Medium (CRM) for 6 hours. […] Following 24 hours incubation, the media was removed and Luciferase Detection Reagent (LDR) added. The firefly luciferase activity was quantified using a plate reader. Results were normalized by positive and negative controls.

EC50 | SMILES
> 400 nM | CC(C)c1c(O)cc(Oc2ccccc2)cc1O [Compound 132, 2-isopropyl-5-phenoxybenzene-1,3-diol]
> 100 nM | CC(C)c1c(O)cc(-c2ccnc3ccc(F)cc23)cc1O [Compound 4]
> 400 nM | CC(C)c1c(O)cc(S(=O)(=O)c2ccccc2)cc1O [Compound 131, 2-isopropyl-5-(phenylsulfonyl)benzene-1,3-diol]
101 nM | CC(C)c1ncc(-c2nc3ccccc3[nH]2)cc1N [Compound 134]
> 100 nM | CC(C)c1onc(/C=C/c2ccccc2)c1O [Compound 109, 5-isopropyl-3-[(E)-2-phenylethenyl]-1,2-oxazol-4-ol]
143 nM | CC(=O)c1c(O)cc(/C=C/c2ccccc2)cc1O [Compound 108]
> 100 nM | CC(C)c1ncc(-c2cnc3c(F)cc(N)cc3c2)cc1O [Compound 53]
> 100 nM | CC(C)c1ncc(-c2cnc3c(F)c(F)ccc3c2)cc1O [Compound 96]
> 100 nM | CC(C)c1ncc(-c2nccc3cccnc23)cc1O [Compound 95]
> 100 nM | CC(C)c1c(O)cc(-c2cc(O)cc3cccnc23)cc1O [Compound 15]
> 100 nM | COc1cc2ncccc2cc1-c1cnc(C(C)C)c(O)c1 [Compound 72]
> 100 nM | CC(C)c1c(O)cc(-c2cnc3c(F)cc(N)cc3c2)cc1O [Compound 2]
> 400 nM | CC(C)c1c(O)cc([S+]([O-])c2ccccc2)cc1O (stereo not shown) [Compound 130, 2-isopropyl-5-(phenylsulfinyl) benzene-1,3-diol]
> 100 nM | CC(C)c1ncc(-c2cc(C(F)(F)F)c3cc(F)ccc3n2)cc1O [Compound 52]
> 100 nM | CC(C)c1ncc(-c2cnc3ccccc3c2)cc1N [Compound 120, 2-isopropyl-5-(quinolin-3-yl) pyridin-3-amine]
78.7 nM | CC(C)c1c(O)cc(-c2cccc3cc(F)c(O)nc23)cc1O [Compound 5]
> 100 nM | CC(C)c1c(O)cc(-c2cnc3ccc(F)cc3c2)cc1O [Compound 11]
> 100 nM | CC(C)c1ncc(-c2cc(F)c3ncccc3c2F)cc1O [Compound 63]
> 100 nM | CC(C)c1ncc(-c2ccc3nccc(C#N)c3c2)cc1O [Compound 81]

EC50 | SMILES
> 100 nM | CC(C)c1ncc(-c2cc(F)c3cnc(N)nc3c2)cc1O [Compound 90]
109 nM | CC(C)c1c(O)cc(-c2cc(F)c3ncccc3c2)cc1O [Compound 6]
> 100 nM | CC(C)c1ncc(-c2ccc(F)c3ccc(C(F)(F)F)nc23)cc1O [Compound 64]
> 100 nM | CC(C)c1c(O)cc(-c2cc3ccccc3nc2C#N)cc1O [Compound 28]
> 100 nM | CC(C)c1ncc(-c2ccnc3ccc(F)cc23)cc1O [Compound 55]
33.4 nM | CC(C)c1c(O)cc(-c2ccc3ncccc3c2F)cc1O [Compound 10]
< 8 nM | COc1cc(/C=C/c2ccccc2)cc(O)c1C(C)C [Compound 137]
> 100 nM | CC(C)c1ncc(-c2cc(F)c3ncccc3c2)cc1O [Compound 57]
> 100 nM | COc1cc2ncccc2cc1-c1cc(O)c(C(C)C)c(O)c1 [Compound 21]
> 100 nM | CC(C)c1ncc(-c2ccc3nccnc3c2)cc1O [Compound 91]
> 100 nM | CC(C)c1ncc(-c2ccnc3c(F)cccc23)cc1O [Compound 54]
> 100 nM | CC(C)c1ncc(/C=C/c2ccccn2)cc1O [Compound 136]
90 nM | CC(C)c1c(O)cc(-c2cnc3c(C(F)(F)F)cccc3c2)cc1O [Compound 51]
> 100 nM | COc1ccc2ccc(-c3cnc(C(C)C)c(O)c3)cc2n1 [Compound 78]
> 100 nM | CC(C)c1ncc(/C=C/c2ccccc2)cc1N [Compound 117, 2-isopropyl-5-[(E)-2-phenylethenyl]pyridin-3-amine]
> 100 nM | Cc1ccnc2cc(-c3cnc(C(C)C)c(O)c3)ccc12 [Compound 73]
> 100 nM | CC(C)c1ncc(-c2c(Cl)cc3c(O)ncnc3c2F)cc1O [Compound 89]
> 100 nM | COc1cc(-c2cc(O)c(C(C)C)c(O)c2)cc2cccnc12 [Compound 18]
